“Also recorded” adds a separate entry of the source.
What was measured:
[1] = tested on: 166 pS K^+ channel; test: Patch-clamp, cell-free patches: channel sensitivity to blockers; assay type: cell-based, human; conditions: 50 mM Ba^2+, inside-out patches, n=4
Experimental: (§1) Patch-clamp experiments were performed at room temperature (21-23° C.), following standard procedures set forth in Sakmann, B. and Neher, E. (1983) Single Channels Recordings (Plenum New York) and Kukuljan, M., et al. (1991) J. Membrane Biol. 119:187. Before recordings, […] culture medium was replaced with the following solution: 150 mM NaCl, 5 mM KCl, 2 mM CaCl2, 1 MM MgCl2, 10 mM HEPES […] pH=7.4. Pipettes were made from Blue Tip capillary tubes (I.D. 1.1-1.2 mm) using a BB-CH Mecanex puller, and then filled with a high potassium solution of 140 mM KCl, 2 mM CaCl2, 1 mM MgCl2, 10 mM HEPES (NaOH), pH=7.4. Pipette resistances were approximately 6 MΩ. Records were obtained using an Axopatch-1C amplifier (dc-10 kHz), stored on tape (Toshiba PCM-video recorder), and later transferred to a personal computer using an Axolab interface. Only recordings lasting for at least 3 minutes were considered for final analysis. The pClamp suite of programs was used for single-channel data acquisition and analysis. Amplifier, interface and software were obtained from Axon Instruments (Foster City, Calif.).

[2] = tested on: 113 pS K^+ channel; test: as above; assay type: cell-based, human; conditions: 50 mM Ba^2+, inside-out patches, n=4
Experimental: as §1

[3] = tested on: human skin fibroblasts (AD, AC, YC); assay type: cell-based
[4] = tested on: proteins in the 20 kD region; test: Total protein analysis (SDS-PAGE, Coomassie blue) of β-amyloid treated AC fibroblasts; assay type: cell-based, human; conditions: 10 nM β-amyloid for 48 h, AC cell lines
Experimental: (§2) Cell lines and procedures for cell culture. Human skin fibroblasts were grown to confluence in 75 cc growing surface culture flasks (Falcon) containing Dulbecco's modified Eagle's medium (DMEM, Gibco), supplemented with 10% fetal calf serum (Gibco). […]
Protein assay, immunoblotting, and total protein analyses procedures. Protein concentration was determined following an established dye-binding protein assay (R. D. Lane et al. J. Immunol Methods 92:261 (1986) for all homogenates. For immunoblots, a SDS-PAGE 4-20% gradient, […] gel was used (Novex, San Diego, Calif.). Sample volume was adjusted to give a protein concentration of 1 μg/μl. Novex sample buffer (16 μl) was added to 16 μl of sample, the solution was heated to 85° C. for 2 min, loaded into the gel and subjected to […] for ≈1.5 h. The Rainbow™ molecular weight standard (Amersham) was also loaded. The resolved proteins were electrophoretically transferred (51.2 mA for 2 h) to a unmodified 8 by 8 cm nitrocellulose paper (Pierce). […] Immunoblots were then digitized on a flat bed scanner and analyzed with imaging software written in the laboratory (TN Image by T. J. Nelson) for quantitative analysis. […] MW was determined by comparison with Mark12™ standards (Novex). […]

[5] = tested on: 113 pS K+ channel; conditions: low β-amyloid concentration (10 nM), cited from earlier work
[6] = tested on: Cp20; test: Cp20 immunoblot of AC fibroblasts treated with β-amyloid; assay type: cell-based, human; conditions: 10 nM β-amyloid for 48 h, 9 AC cell lines
Experimental: as §2
Protein assay, immunoblotting, and total protein analyses procedures. Protein concentration was determined following an established dye-binding protein assay (R. D. Lane et al. J. Immunol Methods 92:261 (1986) for all homogenates. For immunoblots, a SDS-PAGE 4-20% gradient, […] gel was used (Novex, San Diego, Calif.). Sample volume was adjusted to give a protein concentration of 1 μg/μl. Novex sample buffer (16 μl) was added to 16 μl of sample, the solution was heated to 85° C. for 2 min, loaded into the gel and subjected to […] for ≈1.5 h. The Rainbow™ molecular weight standard (Amersham) was also loaded. The resolved proteins were electrophoretically transferred (51.2 mA for 2 h) to a unmodified 8 by 8 cm nitrocellulose paper (Pierce). […]

[Ba+2] [Ba^2+]
sensitivity of the 166 pS channel to Ba^2+ [1]: sensitive | sensitivity of the 113 pS channel to Ba^2+ [2]: sensitive

[Cl][Cd][Cl] [CdCl2]
response to high potassium when agent is added before stimulation [3]: No responses were observed

[Cl-].[Cl-].[Co+2] [CoCl2]
response to high potassium when agent is added before stimulation [3]: No responses were observed

O=C(O)CN(CCOCCOCCN(CC(=O)O)CC(=O)O)CC(=O)O [EGTA]
response to high potassium when agent is added before stimulation [3]: No responses were observed

[Cl-].[K+] [KCl, potassium chloride]
return of [Ca^2+]i to basal levels ([3]; 50 mM KCl): 100 s | [Ca^2+]i elevation ([3]; 50 mM KCl, all three groups (AD, AC, YC)): at least 100%

[Cl][La]([Cl])[Cl] [LaCl3]
response to high potassium when agent is added before stimulation [3]: No responses were observed

[Cl][Ni][Cl] [NiCl2]
response to high potassium when agent is added before stimulation [3]: No responses were observed

β-amyloid 1-40 peptide
effect on total protein profile / proteins in the 20 kD region [4]: not a generalized effect on all proteins in the 20 kD region; also recorded: revealed no differences | effect on the 113 pS K+ channel / K+ function ([5]; control cells): specific AD-like effects; also recorded: induces an AD-like K+ dysfunction | effect on basal levels of intracellular Ca^2+ [5]: without altering basal levels | Cp20 level in treated cells compared to non-treated counterparts [6]: significantly reduced; also recorded: reduction of Cp20; also recorded: induced the Alzheimer's disease phenotypes for Cp20
